Source: patent US12492188B2, “1H-benzo[D]imidazole derivatives as TLR9 inhibitors for the treatment of fibrosis” (BRISTOL-MYERS SQUIBB COMPANY, priority 2020, dated 2025)
Read-outs that look alike come from different tables or passages of the source.

Legend:
human TLR7 = target: T1, human TLR7 (Homo sapiens, UniProt Q9NYK1); experiment: TLR7 inhibition reporter assay (HEK-Blue cells, secreted embryonic alkaline phosphatase reporter); format: cell-based; settings: HEK-Blue cells overexpressing human TLR7, stimulated with gardiquimod 7.5 μM; read-out: TLR 7 IC50
T1 construct: host or cells: HEK-Blue cells (HEK293-derived reporter line)
T1 sequence (Q9NYK1 27-1049): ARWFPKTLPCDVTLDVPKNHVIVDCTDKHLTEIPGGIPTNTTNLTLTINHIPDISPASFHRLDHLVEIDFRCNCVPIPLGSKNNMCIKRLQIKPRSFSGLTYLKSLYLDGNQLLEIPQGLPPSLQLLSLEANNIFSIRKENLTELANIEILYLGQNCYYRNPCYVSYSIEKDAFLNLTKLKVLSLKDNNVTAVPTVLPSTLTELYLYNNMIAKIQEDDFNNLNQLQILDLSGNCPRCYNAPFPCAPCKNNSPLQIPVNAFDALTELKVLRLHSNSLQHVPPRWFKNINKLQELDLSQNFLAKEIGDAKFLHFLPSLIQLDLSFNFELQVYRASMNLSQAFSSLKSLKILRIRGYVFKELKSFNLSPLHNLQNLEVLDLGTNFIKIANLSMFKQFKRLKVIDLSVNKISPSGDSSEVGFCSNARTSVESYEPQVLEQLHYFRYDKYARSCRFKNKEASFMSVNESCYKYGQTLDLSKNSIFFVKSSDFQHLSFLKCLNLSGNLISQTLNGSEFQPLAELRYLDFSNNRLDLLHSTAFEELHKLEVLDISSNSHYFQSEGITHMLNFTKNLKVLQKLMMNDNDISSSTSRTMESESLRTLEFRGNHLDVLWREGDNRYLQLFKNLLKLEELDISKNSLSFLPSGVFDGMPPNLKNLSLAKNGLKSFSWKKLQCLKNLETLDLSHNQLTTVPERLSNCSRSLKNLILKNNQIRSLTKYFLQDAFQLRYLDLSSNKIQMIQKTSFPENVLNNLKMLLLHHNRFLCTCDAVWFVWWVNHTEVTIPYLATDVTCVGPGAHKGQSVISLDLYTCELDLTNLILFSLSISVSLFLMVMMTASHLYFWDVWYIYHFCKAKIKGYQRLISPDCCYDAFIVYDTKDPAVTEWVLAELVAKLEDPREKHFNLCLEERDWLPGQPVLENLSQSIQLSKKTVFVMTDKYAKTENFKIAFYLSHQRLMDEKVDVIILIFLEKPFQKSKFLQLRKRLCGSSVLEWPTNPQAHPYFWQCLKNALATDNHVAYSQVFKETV
Experimental: TLR7/8/9 Inhibition Reporter Assays
HEK-Blue™-cells (Invivogen) overexpressing human TLR7, TLR8 or TLR9 receptors were used for screening inhibitors of these receptors using an inducible SLAP (secreted embryonic alkaline phosphatase) reporter gene under the control of the […] minimal promoter fused to five NF-κB and AP-1-binding sites. Briefly, cells are seeded into Greiner 384 well plates (15000 cells per well for TLR7, 20,000 for TLR8 and 25,000 for TLR9) and then treated with test compounds in DMSO to yield a final dose response concentration range of 0.05 nM-50 μM. After a 30 minute compound pre-treatment at room temperature, the cells are then stimulated with a TLR7 ligand (gardiquimod at a final concentration of 7.5 μM), TLR8 ligand (R848 at a final concentration of 15.9 μM) or TLR9 ligand (ODN2006 at a final concentration of 5 nM) to activate NF-κB and AP-1 which induce the production of SLAP. After a 22 hour incubation at 37° C., […], SLAP levels are determined with the addition of HEK-Blue™ Detection reagent (Invivogen), a cell culture medium that allows for detection of SLAP, according to manufacturer's specifications. The percent inhibition is determined as the […] in the HEK-Blue signal present in wells treated with agonist plus DMSO alone compared to wells treated with a known inhibitor.

human TLR9 = target: T2, human TLR9 (Homo sapiens, UniProt Q9NR96); experiment: TLR9 inhibition reporter assay (HEK-Blue cells, secreted embryonic alkaline phosphatase reporter); format: cell-based
T2 construct: host or cells: HEK-Blue cells (HEK293-derived reporter line)
T2 sequence (Q9NR96 26-1032): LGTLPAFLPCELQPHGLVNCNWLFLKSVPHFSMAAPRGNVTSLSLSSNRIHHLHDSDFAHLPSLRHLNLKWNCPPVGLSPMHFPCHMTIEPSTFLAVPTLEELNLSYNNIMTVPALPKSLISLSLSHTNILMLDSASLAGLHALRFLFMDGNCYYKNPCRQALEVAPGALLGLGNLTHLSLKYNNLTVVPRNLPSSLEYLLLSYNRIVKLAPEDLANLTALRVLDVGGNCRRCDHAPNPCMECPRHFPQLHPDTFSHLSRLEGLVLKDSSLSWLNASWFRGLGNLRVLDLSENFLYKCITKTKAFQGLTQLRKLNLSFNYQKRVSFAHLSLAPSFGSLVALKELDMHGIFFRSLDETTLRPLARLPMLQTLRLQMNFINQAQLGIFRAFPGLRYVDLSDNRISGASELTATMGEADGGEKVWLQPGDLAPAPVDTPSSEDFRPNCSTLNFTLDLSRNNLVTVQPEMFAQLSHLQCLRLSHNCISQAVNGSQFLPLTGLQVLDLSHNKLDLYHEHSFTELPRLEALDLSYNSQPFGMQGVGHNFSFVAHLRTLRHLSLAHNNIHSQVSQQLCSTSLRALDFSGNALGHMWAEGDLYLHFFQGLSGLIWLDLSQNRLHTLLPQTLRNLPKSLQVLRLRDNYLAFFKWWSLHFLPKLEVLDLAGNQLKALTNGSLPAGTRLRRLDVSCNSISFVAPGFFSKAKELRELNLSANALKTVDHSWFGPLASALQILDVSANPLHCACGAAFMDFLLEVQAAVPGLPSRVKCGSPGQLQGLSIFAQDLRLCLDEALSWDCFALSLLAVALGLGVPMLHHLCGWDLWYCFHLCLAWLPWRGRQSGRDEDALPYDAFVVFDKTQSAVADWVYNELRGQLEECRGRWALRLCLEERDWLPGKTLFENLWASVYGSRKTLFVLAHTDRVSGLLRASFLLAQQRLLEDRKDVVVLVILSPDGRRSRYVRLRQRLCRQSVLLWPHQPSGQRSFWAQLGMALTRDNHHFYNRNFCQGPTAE
Summary of the method: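 HEK-Blue cells expressing human TLR7, TLR8 or TLR9 with an NF-κB/AP-1-driven SEAP reporter were pretreated with compound (0.05 nM–50 μM final) for 30 min at room temperature. Agonists were gardiquimod 7.5 μM for TLR7, R848 15.9 μM for TLR8 and ODN2006 5 nM for TLR9. SEAP was read after 22 h at 37 °C, and inhibition was calculated relative to agonist-plus-DMSO and known-inhibitor controls.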

[1] = HEK-Blue cells overexpressing human TLR9, stimulated with ODN2006 5 nM, 22 hour incubation, reporter readout
[2] = HEK-Blue cells overexpressing human TLR9, stimulated with ODN2006 5 nM, read-out: TLR 9 IC50

Row | Compound | IC50 (human TLR7) | IC50 (human TLR9; [1]) | IC50 (human TLR9) | IC50 (human TLR9; [2]) | IC50 (human TLR9; HEK-Blue human TLR9 reporter cells)
1 | CC(C)N1CCC(N2CCC(c3cc(F)c4nc(-c5ccc(S(C)(=O)=O)cc5)n(C5CC5)c4c3)CC2)CC1 [Example 115, 1-cyclopropyl-4-fluoro-6-(1′-isopropyl-[1,4′-bipiperidin]-4-yl)-2-(4-(methylsulfonyl)phenyl)-1H-benzo[d]imidazole] | 1900 nM | 24 nM |  |  | 
2 | Cn1c(-c2ccc(S(C)(=O)=O)cc2)nc2ccc(C3CCN(C4CCN(C5COC5)CC4)CC3)c(F)c21 [Example 263, 7-fluoro-1-methyl-2-(4-(methylsulfonyl)phenyl)-6-(1′-(oxetan-3-yl)-[1,4′-bipiperidin]-4-yl)-1H-benzo[d]imidazole] | 11900 nM |  | 1800 nM | 1770 nM | 
3 | Cn1c(-c2ccc(S(C)(=O)=O)cc2)nc2ccc(C3CCN(C4CCCN(C5CCOCC5)CC4)CC3)c(F)c21 (centres unmarked) [Example 317, 7-fluoro-1-methyl-2-(4-(methylsulfonyl)phenyl)-6-(1-(1-(tetrahydro-2H-pyran-4-yl)azepan-4-yl)piperidin-4-yl)-1H-benzo[d]imidazole] | > 50000 nM |  |  | 18 nM | 18 nM
4 | Cc1cc(-c2ccc(C3CCN(C)CC3)cc2)cc2c1nc(-c1ccc(S(C)(=O)=O)cc1)n2C [Example 363, 1,4-dimethyl-6-(4-(1-methylpiperidin-4-yl)phenyl)-2-(4-(methylsulfonyl)phenyl)-1H-benzo[d]imidazole] | 4300 nM | 140 nM |  | 100 nM | 
5 | Cc1cc(-c2ccc(CN3CCC(N4CCCC4)CC3)cc2)cc2c1nc(-c1ccc(S(C)(=O)=O)cc1)n2C [Example 369, 1,4-dimethyl-2-(4-(methylsulfonyl)phenyl)-6-(4-((4-(pyrrolidin-1-yl)piperidin-1-yl)methyl)phenyl)-1H-benzo[d]imidazole] | 900 nM | 120 nM |  | 121 nM | 
6 | Cc1cc(-c2ccc(CN3CCCC3)cc2)cc2c1nc(-c1ccc(S(C)(=O)=O)cc1)n2C [Example 395, 1,4-dimethyl-2-(4-(methylsulfonyl)phenyl)-6-(4-(pyrrolidin-1-ylmethyl)phenyl)-1H-benzo[d]imidazole] | 11200 nM | 1400 nM |  | 1360 nM | 
7 | Cc1cc(-c2ccc(CN3C[C@@H]4CN(CC(C)C)C[C@@H]4C3)cc2)cc2c1nc(-c1ccc(S(C)(=O)=O)cc1)n2C [Example 396, 6-(4-((cis-5-isobutylhexahydropyrrolo[3,4-c]pyrrol-2(1H)-yl)methyl)phenyl)-1,4-dimethyl-2-(4-(methylsulfonyl)phenyl)-1H-benzo[d]imidazole] | 6700 nM | 200 nM |  | 203 nM | 
8 | Cc1cc(-c2ccc(CN3C[C@@H]4CN(C(C)C)C[C@@H]4C3)cc2)cc2c1nc(-c1ccc(S(C)(=O)=O)cc1)n2C [Example 397, 6-(4-((cis-5-isopropylhexahydropyrrolo[3,4-c]pyrrol-2(1H)-yl)methyl)phenyl)-1,4-dimethyl-2-(4-(methylsulfonyl)phenyl)-1H-benzo[d]imidazole] | 2600 nM | 86 nM |  | 86 nM | 
9 | Cc1cc(-c2ccc(CN3C[C@H]4CN(C)C[C@H]4C3)cc2)cc2c1nc(-c1ccc(S(C)(=O)=O)cc1)n2C [Example 398, 1,4-dimethyl-6-(4-((cis-5-methylhexahydropyrrolo[3,4-c]pyrrol-2(1H)-yl)methyl)phenyl)-2-(4-(methylsulfonyl)phenyl)-1H-benzo[d]imidazole] | 1700 nM | 130 nM |  | 128 nM | 
10 | Cc1cc(CN2CCC(c3cc(C)c4nc(-c5ccc(S(C)(=O)=O)cc5)n(C)c4c3)CC2)cc(C)n1 [Example 418, 6-(1-((2,6-dimethylpyridin-4-yl)methyl)piperidin-4-yl)-1,4-dimethyl-2-(4-(methylsulfonyl)phenyl)-1H-benzo[d]imidazole] |  | 2500 nM |  | 2510 nM | 
11 | CN(C)c1ccc(-c2nc3ccc(-c4ccc(CN5CCC(N(C)C)CC5)cc4)cc3n2C)cc1 [Example 425, 1-(4-(2-(4-(dimethylamino)phenyl)-1-methyl-1H-benzo[d]imidazol-6-yl)benzyl)-N,N-dimethylpiperidin-4-amine] |  | 61 nM |  |  | 
